Activity data for five compounds are collected here from ChEMBL document CHEMBL4177649, “On-site reaction for PPARγ modification using a specific bifunctional ligand” (Bioorg Med Chem, 2017).

Calls of active or inactive are those of the source. The rule behind the calls is not given here.

The target of experiment [1] is T1, Peroxisome proliferator-activated receptor gamma (Homo sapiens) (UniProt P37231).
T1 sequence (whole entry): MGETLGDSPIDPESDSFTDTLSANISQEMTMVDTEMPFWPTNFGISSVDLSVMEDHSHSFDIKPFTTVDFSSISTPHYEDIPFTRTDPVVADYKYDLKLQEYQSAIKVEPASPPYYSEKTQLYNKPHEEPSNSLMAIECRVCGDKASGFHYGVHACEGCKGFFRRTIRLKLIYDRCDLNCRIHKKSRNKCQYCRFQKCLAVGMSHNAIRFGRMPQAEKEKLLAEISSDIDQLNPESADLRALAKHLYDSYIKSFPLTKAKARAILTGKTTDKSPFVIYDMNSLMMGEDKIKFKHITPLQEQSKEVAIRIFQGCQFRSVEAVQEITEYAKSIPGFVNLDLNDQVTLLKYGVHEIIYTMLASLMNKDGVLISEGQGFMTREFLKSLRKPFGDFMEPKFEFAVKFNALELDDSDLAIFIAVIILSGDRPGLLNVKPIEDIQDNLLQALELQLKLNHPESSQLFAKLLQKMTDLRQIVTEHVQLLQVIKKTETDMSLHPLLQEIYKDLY
The experiment is described as follows: Transactivation at human Gal4-fused PPARgamma LBD expressed in African green monkey COS7 cells by dual luciferase assay. It is filed as cell-based.

The target in experiment [2] is T1, Peroxisome proliferator-activated receptor gamma (Homo sapiens). The experiment is described as follows: Binding affinity to Gal4-fused human PPARgamma LBD (204 to 477 residues) assessed as covalent modification at 100 uM after 24 hrs by ESI-mass analysis.
The target is the same in experiment [3]. The experiment is described as follows: Binding affinity to Gal4-fused PPARgamma LBD (unknown origin) expressed in Escherichia coli DH5alpha cell lysates at 4 equiv in presence of ADIBO-fluorescein by SDS-PAGE analysis.
Experiment [4] shares this target. The experiment is described as follows: Binding affinity to human Gal4-fused PPARgamma LBD expressed in African green monkey COS7 cells assessed in presence of ADIBO-fluorescein. It is filed as cell-based.
For experiment [5] the target is unchanged. The experiment is described as follows: Binding affinity to Gal4-fused human PPARgamma LBD (204 to 477 residues) assessed as labeling efficiency at 100 uM after 12 hrs by ESI-mass analysis.
The target in experiment [6] is T2, Peroxisome proliferator-activated receptor gamma (Mus musculus) (UniProt P37238).
T2 sequence (whole entry): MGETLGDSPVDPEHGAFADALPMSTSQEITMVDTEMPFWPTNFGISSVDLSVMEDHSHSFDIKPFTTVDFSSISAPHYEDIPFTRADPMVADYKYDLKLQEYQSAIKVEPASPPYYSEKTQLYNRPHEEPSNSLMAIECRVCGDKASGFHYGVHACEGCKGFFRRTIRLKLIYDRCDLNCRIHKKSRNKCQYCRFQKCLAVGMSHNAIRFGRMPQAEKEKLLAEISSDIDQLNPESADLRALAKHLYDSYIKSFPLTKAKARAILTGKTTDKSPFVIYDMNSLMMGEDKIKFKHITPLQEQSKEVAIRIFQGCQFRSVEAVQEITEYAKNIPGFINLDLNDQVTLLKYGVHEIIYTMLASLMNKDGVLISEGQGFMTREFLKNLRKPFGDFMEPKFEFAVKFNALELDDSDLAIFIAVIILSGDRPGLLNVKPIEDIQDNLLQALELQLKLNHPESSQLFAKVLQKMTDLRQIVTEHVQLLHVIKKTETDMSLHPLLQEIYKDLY
Kind of experiment: Binding affinity to Gal4-fused PPARgamma LBD in mouse 3T3-L1 cells assessed in presence of ADIBO-fluorescein. It is filed as cell-based.

Experiment [7] concerns the target T1, Peroxisome proliferator-activated receptor gamma (Homo sapiens). Kind of experiment: Binding affinity to Gal4-fused PPARgamma LBD (unknown origin) expressed in Escherichia coli DH5alpha cell lysates at 4 equiv in presence of ADIBO-fluorescein by Coomassie Brilliant Blue staining method.
For experiment [8] the target is unchanged. Kind of experiment: Binding affinity to Gal4-fused PPARgamma LBD (unknown origin) expressed in Escherichia coli DH5alpha cell lysates at 4 equiv in presence of ADIBO-fluorescein by silver staining method.
Experiment [9] shares this target. Kind of experiment: Binding affinity to Gal4-fused PPARgamma LBD (unknown origin) expressed in Escherichia coli DH5alpha cell lysates in presence of ADIBO-fluorescein by SDS-PAGE analysis.
Experiment [10] has the same target. The experiment is described as follows: Binding affinity to Gal4-fused human PPARgamma LBD (204 to 477 residues) assessed as covalent modification at 100 uM after 24 hrs in presence of methyl N-((3E,5E)-2-oxohexadeca-3,5-dien-1-yl)-N-tosylglycinate by ESI-mass analysis.
Experiment [11] has the same target. Kind of experiment: Binding affinity to Gal4-fused human PPARgamma LBD (204 to 477 residues) assessed as covalent modification at 100 uM after 24 hrs in presence of methyl N-((3E,5E)-16-azido-2-oxohexadeca-3,5-dien-1-yl)-N-tosylglycinate by ESI-mass analysis.

Take `CCCCCCCCCC/C=C/C=C/C(=O)CN(CC(=O)OC)S(=O)(=O)c1ccc(C)cc1`: the Activity entry in [1] is “Dose-dependent effect”.

On to `COC(=O)CN(CC(=O)/C=C/C=C/CCCCCCCCCCN=[N+]=[N-])S(=O)(=O)c1ccc(C)cc1`, for which the outcome in experiment [2], in experiment [3], in experiment [5], in [7] and in [8] was Active. The result in experiment [4] and in experiment [6] was inactive. For the same compound, the Activity result in experiment [1] and in [9] was “Dose-dependent effect” in each case.

`Cc1ccc(S(=O)(=O)N(CC(=O)O)CC(=O)/C=C/C=C/CCCCCCCCCCn2nnc3c2-c2ccccc2CN(C(=O)CCCCCNC(=O)C(F)(F)F)c2ccccc2-3)cc1`: the outcome in experiment [5] was Active.

Turning to `O=C(CCCCCNC(=O)C(F)(F)F)N1Cc2ccccc2C#Cc2ccccc21`, the outcome in [10] was inactive. For the same compound, the result in experiment [11] was Active.

As for `O=C(O)c1cc(NC(=S)NCCCCCC(=O)N2Cc3ccccc3C#Cc3ccccc32)ccc1-c1c2ccc(=O)cc-2oc2cc(O)ccc12`, in [7], the result was Active.
